# Laboratory results taken from ChEMBL document CHEMBL4507261, “Data for DCP probe A-192621” (2021).
# Tests used:
# [1] = target: Dual specificity protein kinase CLK2 (Homo sapiens) (UniProt P49760); settings: Compound concentration 1000.0 nM
# [2] = target: Tyrosine-protein kinase BTK (Homo sapiens) (UniProt Q06187); settings: Compound concentration 1000.0 nM
# [3] = target: Cyclin-dependent kinase 13 (Homo sapiens) (UniProt Q14004); settings: Compound concentration 1000.0 nM
# [4] = target: Mast/stem cell growth factor receptor Kit (Homo sapiens) (UniProt P10721); settings: Compound concentration 1000.0 nM
# [5] = system: Mast/stem cell growth factor receptor Kit (Homo sapiens), P10721 [V559D]; settings: Compound concentration 1000.0 nM
# [6] = target: Serine/threonine-protein kinase 32C (Homo sapiens) (UniProt Q86UX6); settings: Compound concentration 1000.0 nM
# [7] = target: Serine/threonine-protein kinase Sgk3 (Homo sapiens) (UniProt Q96BR1); settings: Compound concentration 1000.0 nM
# [8] = target: Cyclin-dependent kinase-like 5 (Homo sapiens) (UniProt O76039); settings: Compound concentration 1000.0 nM
# [9] = target: Cyclin-G-associated kinase (Homo sapiens) (UniProt O14976); settings: Compound concentration 1000.0 nM
# [10] = target: Cyclin-dependent kinase 19 (Homo sapiens) (UniProt Q9BWU1); settings: Compound concentration 1000.0 nM
# [11] = target: Phosphatidylinositol 4-phosphate 5-kinase type-1 alpha (Homo sapiens) (UniProt Q99755); settings: Compound concentration 1000.0 nM
# [12] = target: Ribosomal protein S6 kinase alpha-2 (Homo sapiens) (UniProt Q15349); settings: Compound concentration 1000.0 nM
# [13] = target: Dual specificity mitogen-activated protein kinase kinase 1 (Homo sapiens) (UniProt Q02750); settings: Compound concentration 1000.0 nM
# [14] = target: Glucocorticoid receptor (Homo sapiens) (UniProt P04150); assay: GR (h) Eurofins-Cerep binding assay; set-up: ligand concentration 1.5 nM; settings: filed as agonist, Compound concentration 10.0 uM
# [15] = target: Ephrin type-B receptor 2 (Homo sapiens) (UniProt P29323); settings: Compound concentration 1000.0 nM
# [16] = target: T1, 5-hydroxytryptamine receptor 3A (Homo sapiens) (UniProt P46098); assay: 5-HT3 (h) Eurofins-Cerep binding assay; set-up: ligand concentration 0.5 nM; settings: filed as antagonist, Compound concentration 10.0 uM
# T1 sequence (whole entry): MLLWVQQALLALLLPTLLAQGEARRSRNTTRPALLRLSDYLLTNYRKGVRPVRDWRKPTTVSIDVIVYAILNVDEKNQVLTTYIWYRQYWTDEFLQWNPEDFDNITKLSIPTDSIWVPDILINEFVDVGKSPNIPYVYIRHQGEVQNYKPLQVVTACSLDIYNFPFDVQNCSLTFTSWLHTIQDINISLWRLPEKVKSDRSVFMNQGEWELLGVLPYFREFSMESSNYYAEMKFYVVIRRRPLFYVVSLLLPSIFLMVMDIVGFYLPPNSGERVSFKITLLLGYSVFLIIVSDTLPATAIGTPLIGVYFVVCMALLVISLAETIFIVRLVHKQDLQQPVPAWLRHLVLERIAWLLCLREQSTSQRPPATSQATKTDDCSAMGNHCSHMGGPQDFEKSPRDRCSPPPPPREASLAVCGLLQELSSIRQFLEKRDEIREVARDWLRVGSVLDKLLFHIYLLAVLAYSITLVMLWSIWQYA
# [17] = target: STE20/SPS1-related proline-alanine-rich protein kinase (Homo sapiens) (UniProt Q9UEW8); settings: Compound concentration 1000.0 nM
# [18] = target: Mitogen-activated protein kinase 6 (Homo sapiens) (UniProt Q16659); settings: Compound concentration 1000.0 nM
# [19] = target: T2, 5-hydroxytryptamine receptor 2C (Homo sapiens) (UniProt P28335); assay: 5-HT2C (h) Eurofins-Cerep binding assay; set-up: ligand concentration 1 nM; settings: filed as antagonist, Compound concentration 10.0 uM
# T2 sequence (whole entry): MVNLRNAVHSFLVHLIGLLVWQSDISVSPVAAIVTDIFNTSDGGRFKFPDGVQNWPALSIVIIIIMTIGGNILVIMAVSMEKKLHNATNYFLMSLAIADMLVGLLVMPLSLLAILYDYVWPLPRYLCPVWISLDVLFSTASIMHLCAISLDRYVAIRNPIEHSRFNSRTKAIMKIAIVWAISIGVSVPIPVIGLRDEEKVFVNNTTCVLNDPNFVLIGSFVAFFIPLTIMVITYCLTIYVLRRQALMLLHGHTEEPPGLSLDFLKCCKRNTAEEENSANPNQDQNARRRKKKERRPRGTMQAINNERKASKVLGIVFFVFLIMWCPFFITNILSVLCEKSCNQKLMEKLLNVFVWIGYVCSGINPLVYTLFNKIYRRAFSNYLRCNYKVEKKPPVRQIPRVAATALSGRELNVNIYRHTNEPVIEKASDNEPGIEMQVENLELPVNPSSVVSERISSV
# [20] = target: Platelet-derived growth factor receptor alpha (Homo sapiens) (UniProt P16234); settings: Compound concentration 1000.0 nM
# [21] = target: Serine/threonine-protein kinase PLK3 (Homo sapiens) (UniProt Q9H4B4); settings: Compound concentration 1000.0 nM
# [22] = target: Tyrosine-protein kinase Blk (Homo sapiens) (UniProt P51451); settings: Compound concentration 1000.0 nM
# [23] = target: T3, Muscarinic acetylcholine receptor M4 (Homo sapiens) (UniProt P08173); assay: M4 (h) Eurofins-Cerep binding assay; set-up: ligand concentration 0.2 nM; settings: filed as antagonist, Compound concentration 10.0 uM
# T3 sequence (whole entry): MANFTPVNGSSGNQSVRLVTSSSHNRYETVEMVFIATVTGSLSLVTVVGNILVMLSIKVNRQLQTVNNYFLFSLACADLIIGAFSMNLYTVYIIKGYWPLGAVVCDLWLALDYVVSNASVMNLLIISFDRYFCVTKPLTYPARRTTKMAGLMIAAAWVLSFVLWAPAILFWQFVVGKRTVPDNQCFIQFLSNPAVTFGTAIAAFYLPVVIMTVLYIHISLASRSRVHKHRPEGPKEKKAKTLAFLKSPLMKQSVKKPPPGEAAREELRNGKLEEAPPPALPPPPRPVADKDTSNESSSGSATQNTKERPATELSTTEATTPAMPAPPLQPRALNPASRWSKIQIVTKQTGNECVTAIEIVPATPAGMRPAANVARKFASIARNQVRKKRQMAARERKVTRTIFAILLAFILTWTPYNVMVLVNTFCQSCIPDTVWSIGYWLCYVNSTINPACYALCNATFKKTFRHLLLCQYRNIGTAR
# [24] = system: Mast/stem cell growth factor receptor Kit (Homo sapiens), P10721 [A829P]; settings: Compound concentration 1000.0 nM
# [25] = target: Serine/threonine-protein kinase VRK2 (Homo sapiens) (UniProt Q86Y07); settings: Compound concentration 1000.0 nM
# [26] = target: Cyclin-dependent kinase-like 3 (Homo sapiens) (UniProt Q8IVW4); settings: Compound concentration 1000.0 nM
# Cyclin-dependent kinase-like 3 (Homo sapiens), sequence (Q8IVW4 whole entry, looked up): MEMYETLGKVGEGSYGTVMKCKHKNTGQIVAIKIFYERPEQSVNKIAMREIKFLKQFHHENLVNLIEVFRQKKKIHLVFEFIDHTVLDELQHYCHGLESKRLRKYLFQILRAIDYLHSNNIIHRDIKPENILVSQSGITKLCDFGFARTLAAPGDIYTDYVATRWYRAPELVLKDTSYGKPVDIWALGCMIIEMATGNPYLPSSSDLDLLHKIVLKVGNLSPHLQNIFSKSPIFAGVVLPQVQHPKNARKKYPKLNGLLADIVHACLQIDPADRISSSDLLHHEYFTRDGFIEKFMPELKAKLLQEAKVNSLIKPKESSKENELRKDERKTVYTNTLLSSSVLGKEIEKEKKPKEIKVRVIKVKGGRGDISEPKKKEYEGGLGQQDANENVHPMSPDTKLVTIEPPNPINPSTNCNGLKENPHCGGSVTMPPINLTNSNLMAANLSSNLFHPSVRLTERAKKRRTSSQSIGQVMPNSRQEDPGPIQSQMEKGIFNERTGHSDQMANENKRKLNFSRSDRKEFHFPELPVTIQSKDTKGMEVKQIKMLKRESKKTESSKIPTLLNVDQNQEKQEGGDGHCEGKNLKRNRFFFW
# Mast/stem cell growth factor receptor Kit (Homo sapiens), P10721 [A829P], sequence (P10721 whole entry A829P): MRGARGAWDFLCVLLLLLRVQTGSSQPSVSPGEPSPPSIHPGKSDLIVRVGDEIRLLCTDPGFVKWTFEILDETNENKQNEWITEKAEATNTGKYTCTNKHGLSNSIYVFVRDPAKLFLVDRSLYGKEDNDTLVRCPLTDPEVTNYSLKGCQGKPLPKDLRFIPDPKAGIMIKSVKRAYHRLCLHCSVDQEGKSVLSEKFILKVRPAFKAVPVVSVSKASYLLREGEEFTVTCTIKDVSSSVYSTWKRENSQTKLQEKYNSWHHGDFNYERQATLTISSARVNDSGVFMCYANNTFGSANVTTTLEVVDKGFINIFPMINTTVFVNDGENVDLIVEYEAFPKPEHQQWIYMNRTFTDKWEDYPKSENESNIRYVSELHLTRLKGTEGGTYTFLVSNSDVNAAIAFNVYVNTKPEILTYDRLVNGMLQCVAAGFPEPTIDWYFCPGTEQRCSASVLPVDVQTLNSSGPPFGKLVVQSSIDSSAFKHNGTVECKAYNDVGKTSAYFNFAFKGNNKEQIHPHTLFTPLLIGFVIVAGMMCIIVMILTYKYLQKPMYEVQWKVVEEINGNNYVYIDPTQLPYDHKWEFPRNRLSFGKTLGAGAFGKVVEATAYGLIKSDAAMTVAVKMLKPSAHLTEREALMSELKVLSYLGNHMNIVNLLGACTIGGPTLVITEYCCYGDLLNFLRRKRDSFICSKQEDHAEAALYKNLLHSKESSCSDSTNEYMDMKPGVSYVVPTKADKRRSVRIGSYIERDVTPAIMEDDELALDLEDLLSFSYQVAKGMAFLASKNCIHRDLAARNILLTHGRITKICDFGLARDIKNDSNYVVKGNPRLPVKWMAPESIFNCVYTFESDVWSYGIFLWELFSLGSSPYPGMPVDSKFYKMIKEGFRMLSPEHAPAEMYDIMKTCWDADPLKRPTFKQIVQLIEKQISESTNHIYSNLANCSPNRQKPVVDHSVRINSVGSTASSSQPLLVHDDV
# Serine/threonine-protein kinase 32C (Homo sapiens), sequence (Q86UX6 whole entry): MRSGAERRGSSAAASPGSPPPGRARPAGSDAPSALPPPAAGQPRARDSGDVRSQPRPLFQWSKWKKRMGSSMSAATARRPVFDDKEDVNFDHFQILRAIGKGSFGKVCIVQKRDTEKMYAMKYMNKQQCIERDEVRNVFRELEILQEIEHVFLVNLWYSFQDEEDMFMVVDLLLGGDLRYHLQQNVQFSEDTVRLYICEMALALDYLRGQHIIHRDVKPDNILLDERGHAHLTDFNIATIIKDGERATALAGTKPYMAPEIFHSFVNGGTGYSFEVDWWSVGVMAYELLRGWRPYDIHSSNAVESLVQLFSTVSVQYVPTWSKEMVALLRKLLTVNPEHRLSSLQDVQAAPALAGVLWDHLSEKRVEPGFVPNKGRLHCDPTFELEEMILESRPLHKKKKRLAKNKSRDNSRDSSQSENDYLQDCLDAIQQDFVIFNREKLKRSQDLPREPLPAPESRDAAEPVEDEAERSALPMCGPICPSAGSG
# Serine/threonine-protein kinase PLK3 (Homo sapiens), sequence (Q9H4B4 whole entry, looked up): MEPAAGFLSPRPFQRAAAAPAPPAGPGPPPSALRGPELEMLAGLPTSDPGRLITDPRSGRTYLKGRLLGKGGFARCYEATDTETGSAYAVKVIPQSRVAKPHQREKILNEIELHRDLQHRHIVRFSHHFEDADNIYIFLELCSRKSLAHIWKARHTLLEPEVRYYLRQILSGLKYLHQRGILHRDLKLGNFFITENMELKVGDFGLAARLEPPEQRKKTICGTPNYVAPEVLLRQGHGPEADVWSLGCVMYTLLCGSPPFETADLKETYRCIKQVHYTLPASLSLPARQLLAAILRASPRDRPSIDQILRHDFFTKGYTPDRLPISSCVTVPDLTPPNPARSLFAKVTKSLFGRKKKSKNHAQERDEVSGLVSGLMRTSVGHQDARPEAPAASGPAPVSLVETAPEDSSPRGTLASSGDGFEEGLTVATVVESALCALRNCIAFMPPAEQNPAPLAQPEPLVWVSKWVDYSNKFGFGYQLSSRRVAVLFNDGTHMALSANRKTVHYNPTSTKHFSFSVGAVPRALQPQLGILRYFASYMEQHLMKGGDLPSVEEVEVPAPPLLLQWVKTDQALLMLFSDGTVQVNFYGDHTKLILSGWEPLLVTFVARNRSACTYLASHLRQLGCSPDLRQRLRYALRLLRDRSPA
# Serine/threonine-protein kinase VRK2 (Homo sapiens), sequence (Q86Y07 whole entry): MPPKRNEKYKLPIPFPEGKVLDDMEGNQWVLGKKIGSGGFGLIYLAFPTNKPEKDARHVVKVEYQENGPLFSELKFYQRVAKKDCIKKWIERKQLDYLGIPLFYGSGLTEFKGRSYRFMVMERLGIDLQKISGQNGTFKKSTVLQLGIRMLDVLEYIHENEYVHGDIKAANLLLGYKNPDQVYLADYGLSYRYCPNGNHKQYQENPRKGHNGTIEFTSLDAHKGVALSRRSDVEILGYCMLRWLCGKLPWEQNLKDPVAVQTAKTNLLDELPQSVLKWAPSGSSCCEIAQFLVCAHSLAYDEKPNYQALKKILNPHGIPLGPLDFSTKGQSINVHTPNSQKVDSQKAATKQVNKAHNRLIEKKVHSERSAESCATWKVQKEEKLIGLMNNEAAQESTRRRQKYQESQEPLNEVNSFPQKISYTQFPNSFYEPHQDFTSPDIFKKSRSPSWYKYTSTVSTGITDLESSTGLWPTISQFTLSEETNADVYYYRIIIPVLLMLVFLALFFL
# Serine/threonine-protein kinase Sgk3 (Homo sapiens), sequence (Q96BR1 whole entry): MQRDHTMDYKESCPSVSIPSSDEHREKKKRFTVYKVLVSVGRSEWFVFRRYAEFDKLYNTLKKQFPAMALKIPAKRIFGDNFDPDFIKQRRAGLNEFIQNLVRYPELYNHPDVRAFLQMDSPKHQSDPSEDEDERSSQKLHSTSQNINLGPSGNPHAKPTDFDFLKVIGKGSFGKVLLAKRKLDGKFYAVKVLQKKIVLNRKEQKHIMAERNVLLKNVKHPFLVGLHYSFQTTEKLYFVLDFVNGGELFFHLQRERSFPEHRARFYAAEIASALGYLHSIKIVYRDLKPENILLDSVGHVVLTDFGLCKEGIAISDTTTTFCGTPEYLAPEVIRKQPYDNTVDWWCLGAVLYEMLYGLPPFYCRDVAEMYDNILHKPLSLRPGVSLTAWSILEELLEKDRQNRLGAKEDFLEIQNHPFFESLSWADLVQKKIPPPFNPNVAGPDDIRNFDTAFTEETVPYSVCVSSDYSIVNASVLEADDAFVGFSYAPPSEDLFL
# Glucocorticoid receptor (Homo sapiens), sequence (P04150 whole entry): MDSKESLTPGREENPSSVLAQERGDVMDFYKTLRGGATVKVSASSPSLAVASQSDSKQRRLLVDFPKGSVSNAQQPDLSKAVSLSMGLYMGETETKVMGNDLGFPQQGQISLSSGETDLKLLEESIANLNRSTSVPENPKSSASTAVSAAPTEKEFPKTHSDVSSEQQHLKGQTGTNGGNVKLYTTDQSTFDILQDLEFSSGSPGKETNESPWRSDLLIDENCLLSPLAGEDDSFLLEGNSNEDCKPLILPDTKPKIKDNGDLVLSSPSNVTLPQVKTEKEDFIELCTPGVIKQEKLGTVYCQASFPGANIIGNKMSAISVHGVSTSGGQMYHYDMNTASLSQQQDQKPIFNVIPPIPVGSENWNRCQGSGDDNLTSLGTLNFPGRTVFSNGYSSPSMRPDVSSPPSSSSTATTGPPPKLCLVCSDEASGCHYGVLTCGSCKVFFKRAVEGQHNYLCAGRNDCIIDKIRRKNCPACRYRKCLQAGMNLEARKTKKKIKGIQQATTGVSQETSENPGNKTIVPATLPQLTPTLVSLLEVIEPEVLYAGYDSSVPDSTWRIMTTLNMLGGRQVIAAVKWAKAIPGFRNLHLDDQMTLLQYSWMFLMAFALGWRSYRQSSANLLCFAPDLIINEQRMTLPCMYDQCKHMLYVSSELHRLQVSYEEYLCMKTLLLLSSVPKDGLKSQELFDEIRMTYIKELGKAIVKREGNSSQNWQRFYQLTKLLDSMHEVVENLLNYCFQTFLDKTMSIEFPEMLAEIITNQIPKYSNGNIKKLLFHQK
# Tyrosine-protein kinase Blk (Homo sapiens), sequence (P51451 2-505 limits assumed): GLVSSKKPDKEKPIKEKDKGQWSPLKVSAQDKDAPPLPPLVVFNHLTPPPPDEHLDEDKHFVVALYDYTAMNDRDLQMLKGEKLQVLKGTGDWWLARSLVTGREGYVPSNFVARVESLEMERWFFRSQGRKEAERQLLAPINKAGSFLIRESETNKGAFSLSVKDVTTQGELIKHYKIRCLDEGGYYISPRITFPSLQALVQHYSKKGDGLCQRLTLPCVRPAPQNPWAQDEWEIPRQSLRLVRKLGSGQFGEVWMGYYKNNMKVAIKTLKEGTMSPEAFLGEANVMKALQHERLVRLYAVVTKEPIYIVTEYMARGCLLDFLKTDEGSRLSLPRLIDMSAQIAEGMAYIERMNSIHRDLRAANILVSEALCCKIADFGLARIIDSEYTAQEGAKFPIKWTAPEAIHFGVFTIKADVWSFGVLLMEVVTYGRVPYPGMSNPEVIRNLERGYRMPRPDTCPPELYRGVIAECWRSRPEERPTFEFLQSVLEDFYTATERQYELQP
# Mast/stem cell growth factor receptor Kit (Homo sapiens), sequence (P10721 whole entry): as the sequence (P10721 whole entry A829P) above, with P829A counted along it
SMILES,residual activity [1],residual activity [2],residual activity [3],residual activity [4],residual activity [5],residual activity [6],residual activity [7],residual activity [8],residual activity [9],residual activity [10],residual activity [11],residual activity [12],residual activity [13],% Inhibition of Control Specific Binding (Mean n=2) [14],residual activity [15],% Inhibition of Control Specific Binding (Mean n=2) [16],residual activity [17],residual activity [18],residual activity [20],residual activity [21],other results
CCCOc1ccc([C@@H]2[C@@H](C(=O)O)[C@H](c3ccc4c(c3)OCO4)CN2CC(=O)Nc2c(CC)cccc2CC)cc1 [A-1806262],100%,72%,81%,90%,93%,100%,69%,83%,98%,89%,90%,81%,93%,4.1%,100%,-7.1%,78%,59%,76%,88%,% Inhibition of Control Specific Binding [19]: 0%; residual activity [22]: 96%; % Inhibition of Control Specific Binding (Mean n=2) [23]: -1.8%; residual activity [24]: 66%; residual activity [25]: 59%; residual activity [26]: 95%
CCCOc1ccc([C@H]2[C@H](C(=O)O)[C@@H](c3ccc4c(c3)OCO4)CN2CC(=O)Nc2c(CC)cccc2CC)cc1 [A-192621],91%,55%,45%,85%,87%,100%,63%,85%,93%,95%,82%,82%,66%,7%,100%,-10.7%,58%,92%,80%,83%,% Inhibition of Control Specific Binding (Mean n=2) [19]: 1.2%; residual activity [22]: 88%; % Inhibition of Control Specific Binding (Mean n=2) [23]: -2%; residual activity [24]: 63%; residual activity [25]: 61%; residual activity [26]: 92%
